Here are results for one compound from US5710129A, “Inhibitors of SH2-mediated processes” (Ariad Pharmaceuticals, Inc., priority 1995, dated 1998).

Test [1] deals with T1, pp70^ZAP (1-259) (Homo sapiens, UniProt P43403).
T1 sequence (P43403 1-259): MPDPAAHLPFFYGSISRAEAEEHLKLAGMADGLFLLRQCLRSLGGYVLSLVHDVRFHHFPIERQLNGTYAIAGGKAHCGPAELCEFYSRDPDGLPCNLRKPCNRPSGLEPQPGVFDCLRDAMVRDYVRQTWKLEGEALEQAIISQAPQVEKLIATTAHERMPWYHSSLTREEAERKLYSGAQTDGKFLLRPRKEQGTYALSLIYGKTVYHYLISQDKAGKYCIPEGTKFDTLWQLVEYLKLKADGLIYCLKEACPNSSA
Description: Tandem ZAP competitive binding assay, surface plasmon resonance (BIAcore). Conditions: 10 nM protein; ζ-chain ITAM-1 of human T-cell receptor as ligand; read-out: N,CZap IC-50. On the procedure: (§1) Binding was measured by competition using surface plasmon resonance (Malmqvist, M. (1993) Current Opinions in Immunology 5, 282-286) as implemented in the BIAcore Biosensor (Pharmacia Biosensor, Piscataway, N.J.). […] Results were compared to binding measured in the absence of competitor and expressed as percent inhibition. IC50values reflect the concentration of inhibitor required to reduce binding by 50%. Specifics of individual assays are described below. All asssays were run in HEPES Buffered Saline (HBS) composed of 10 mM HEPES (pH 7.4)/150 mM NaCl/3.4 mM EDTA/0.05% Surfactant P20at 25° C. and a flow rate of 5 uL min^-1.
A pp70^ZAP peptide ligand corresponding to the .zeta.-chain ITAM-1 of the human T-cell receptor [NQLY(PO4)NELNIGRREEY(PO4)DVLD] [SEQ ID NO:20] was synthesized as a part of a larger peptide [Ac-KGGNQLY(PO4)NELNIGRREEY-(PO4)DVLD-NH2 ] [SEQ ID NO:21] and used to generate a ZAP-sensitive biosensor surface. Specifically, a Biosensor Chip CM5was activated with 200 mM EDC/50 mM NHS to generate a surface reactive to primary amines and the ITAM peptide immobilized through the N-terminal lysine. Unreacted sites were blocked with ethanolamine (1M in water) and the chip cleaned of non-covalently bound peptide using 6M guanidine hydrochloride. Assays were run in HBS using 10 nM pp70^ZAP (1-259)±test inhibitor. (The designation "b22" indicates use of a corresponding γ-chain ITAM for the .zeta.-chain ITAM.)
A general note: Surface plasmon resonance follows binding to a sensor surface in real time, without labels.

The target in test [2] is T2, pp72^syk (1-265) (Homo sapiens, UniProt P43405).
T2 construct: Assays were run in HBS using 20 nM pp72^syk (1-265)
In words: Tandem Syk competitive binding assay, surface plasmon resonance (BIAcore). Particulars: 20 nM protein; γ-chain ITAM of human FcεRI as ligand; read-out: N,CSyk IC-50. How it is done:
as §1
A pp72^syk peptide ligand corresponding to the γ-chain ITAM of human Fcε RI [DGVY(PO4)TGLSTRNQETY(PO4)ETLK] [SEQ ID NO:18] was synthesized as part of a larger peptide [Ac-CGGDGVY(PO4)TGLSTRNQETY-(PO4)ETLK-NH2] [SEQ ID NO:19] and used to generate a Syk-sensitive biosensor surface. Specifically, a Biosensor Chip CM5was activated with 200 mM ethyl-3-(3-dimethylaminopropyl)-carbodiimide hydrochloride (EDC)/50 mM N-hydroxysuccinimide (NHS) to generate a surface reactive to primary amines; treated with ethylenediamine to generate a surface rich in primary amines; activated with m-maleimidobenzoyl-N-hydroxysuccinimide ester (sulfo-MBS; 50 mM in 25 mM NaHCO3) to generate a surface reactive to free thiols; and the ITAM peptide immobilized through the N-terminal cysteine. Unreacted sites were blocked with β-mercaptoethanol and the chip cleaned of noncovalently bound peptide using 6M guanidine hydrochloride. Assays were run in HBS using 20 nM pp72^syk (1-265)±test inhibitor.

In test [3] the target is T3, pp60^src (144-251) (Homo sapiens, UniProt P12931).
T3 construct: Assays were run in HBS using 270 nM pp60^src (144-251)
Description: Src competitive binding assay, surface plasmon resonance (BIAcore). Particulars: 270 nM protein; hamster Middle-T antigen phosphopeptide as ligand; read-out: Src IC-50. On the procedure:
as §1
A p60^src peptide ligand corresponding to the hamster Middle-T antigen [QY(PO4)EEIPI] [SEQ ID NO:22] was synthesized as a part of a larger peptide [Ac-KGGQY(PO4)EEIPI-NH2 ] [SEQ ID NO:23] and used to generate a src-sensitive biosensor surface as described above for tandem ZAP. Assays were run in HBS using 270 nM pp60^src (144-251)±test inhibitor.

Test [4] deals with T4, pp72^syk (163-265) (Homo sapiens, UniProt P43405).
T4 construct: Assays were run in HBS using 270 nM pp72^syk (163-265)
In words: C-Syk competitive binding assay, surface plasmon resonance (BIAcore). Particulars: 270 nM protein; hemiphosphorylated γ-chain ITAM of human FcεRI as ligand; read-out: CSyk IC-50. How it is done:
as §1
A pp72^syk peptide ligand corresponding to a hemiphosphorylated γ-chain ITAM of human Fcε RI [DGVY(PO4)TGLSTRNQETYETLK] was synthesized as part of a larger peptide [Ac-CGGDGVY(PO4)TGLSTRNQETYETLK-NH2 ] and used to generate a C-Syk-sensitive biosensor surface as described above for tandem syk. Assays were run in HBS using 270 nM pp72^syk (163-265)±test inhibitor.

Square brackets hold non-standard residues; d marks the D form. Peptide text beside a SMILES is read from it. Tyr(3,5-(NO2)2) = N[C@@H](Cc1cc([N+](=O)[O-])c(O)c([N+](=O)[O-])c1)C(=O)O; 1Nal = N[C@@H](Cc1cccc2ccccc12)C(=O)O

T3 sequence (P12931 144-251): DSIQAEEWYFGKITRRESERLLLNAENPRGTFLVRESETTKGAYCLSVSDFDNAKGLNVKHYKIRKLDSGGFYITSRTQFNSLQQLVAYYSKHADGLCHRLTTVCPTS

`CC(=O)N[C@@H](Cc1cccc2ccccc12)C(=O)N[C@@H](Cc1cc([N+](=O)[O-])c(O)c([N+](=O)[O-])c1)C(=O)N[C@@H](CCC(=O)O)C(=O)N[C@H](C(=O)N[C@@H](CC(C)C)C(N)=O)[C@@H](C)O` (Ac-[1Nal][Tyr(3,5-(NO2)2)]ETL-NH2): the IC50 in test [1] is over 100 µM; in test [2], 800 µM; in test [3], over 500 µM; in test [4], 200 µM.
